Data reported in PMC9060607 (RSC Advances, 2019).
Where a name gives a salt, the structure may show the parent alone.

Assays:
[1] = tested on: plasma esterases; experiment: Inhibition of CDD hydrolysis in rat plasma by esterase inhibitors; type: biochemical; conditions: for % inhibition of CDD hydrolysis: CDD 1.5 μM, 37 °C, 5 s
[2] = tested on: plasma esterases; experiment: Inhibition of CDD hydrolysis in dog plasma by esterase inhibitors; type: biochemical, beagle dog; conditions: for % inhibition of CDD hydrolysis: CDD 1.5 μM, 37 °C, 15 min
[3] = tested on: plasma esterases; experiment: Inhibition of CDD hydrolysis in human plasma by esterase inhibitors; type: biochemical; conditions: for % inhibition of CDD hydrolysis: CDD 1.5 μM, 37 °C, 5 min
[4] = tested on: plasma CES; conditions: rat plasma, inhibitor 10 mM; cited from earlier work

SMILES | % inhibition of CDD hydrolysis ([1]; inhibitor 0.1 mM) [%] | % inhibition of CDD hydrolysis ([1]; inhibitor 1 mM) [%] | % inhibition of CDD hydrolysis ([2]; inhibitor 0.1 mM) [%] | % inhibition of CDD hydrolysis ([2]; inhibitor 1 mM) [%] | % inhibition of CDD hydrolysis ([3]; inhibitor 0.1 mM) [%] | % inhibition of CDD hydrolysis ([3]; inhibitor 1 mM) [%] | inhibition of CDD hydrolysis (in words) ([1]; concentration not given) | inhibition of CDD hydrolysis (in words) ([2]; concentration not given) | inhibition of CDD hydrolysis (in words) ([3]; concentration not given) | also measured
O=[N+]([O-])c1ccc(OP(=O)(O)Oc2ccc([N+](=O)[O-])cc2)cc1 [BNPP, Bis(4-nitrophenyl) phosphate] | 83.0 ± 8.9 | 97.0 ± 7.7 | 16.6 ± 8.2 | 63.6 ± 1.8 | <10 | 42.2 ± 6.7 |  |  |  | inhibition of CDD hydrolysis (in words) ([3]; inhibitor 1 mM): partial inhibition; effect on ex vivo hydrolysis of CDD [4]: inhibited
C=CC[N+](C)(C)c1ccc(CCC(=O)CCc2ccc([N+](C)(C)CC=C)cc2)cc1.[Br-].[Br-] [BW284c51, 1,5-bis(4-allyldimethylammoniumphenyl)pentan-3-one dibromide] |  |  |  |  |  |  | did not prevent | no inhibition | no inhibition | % inhibition of CDD hydrolysis ([1]; inhibitor 10 μM): <10%; % inhibition of CDD hydrolysis ([1]; inhibitor 100 μM): <10%; % inhibition of CDD hydrolysis ([2]; inhibitor 10 μM): <10%; % inhibition of CDD hydrolysis ([2]; inhibitor 100 μM): <10%; % inhibition of CDD hydrolysis ([3]; inhibitor 10 μM): <10%; % inhibition of CDD hydrolysis ([3]; inhibitor 100 μM): <10%
O=C(O)c1cc(SSc2ccc([N+](=O)[O-])c(C(=O)O)c2)ccc1[N+](=O)[O-] [DTNB, 5,5′-dithiobis-2-nitrobenzoic acid] | <10 | <10 | <10 | 47.8 ± 0.83 | <10 | 52.0 ± 1.5 | did not prevent |  |  | inhibition of CDD hydrolysis (in words) ([2]; inhibitor 1 mM): moderate inhibition; inhibition of CDD hydrolysis (in words) ([3]; inhibitor 1 mM): moderate inhibition
O=C([O-])CN(CCN(CC(=O)[O-])CC(=O)O)CC(=O)O.[Na+].[Na+] [EDTA, Ethylenediaminetetraacetic acid disodium] |  |  |  |  |  |  | did not prevent | no inhibition | no inhibition | % inhibition of CDD hydrolysis ([1]; inhibitor 5 mM): <10%; % inhibition of CDD hydrolysis ([1]; inhibitor 10 mM): <10%; % inhibition of CDD hydrolysis ([2]; inhibitor 5 mM): <10%; % inhibition of CDD hydrolysis ([2]; inhibitor 10 mM): <10%; % inhibition of CDD hydrolysis ([3]; inhibitor 5 mM): <10%; % inhibition of CDD hydrolysis ([3]; inhibitor 10 mM): <10%
O=C(O)CN(CCOCCOCCN(CC(=O)O)CC(=O)O)CC(=O)O [EGTA, ethyleneglycol-bis(2-aminoethylether)-tetraacetic acid] |  |  |  |  |  |  |  | fewer than those of the aforementioned esterase inhibitors | partially inhibited | % inhibition of CDD hydrolysis ([1]; inhibitor 5 mM): <10%; % inhibition of CDD hydrolysis ([1]; inhibitor 10 mM): <10%; % inhibition of CDD hydrolysis ([2]; inhibitor 5 mM): 17.3 ± 6.1%; % inhibition of CDD hydrolysis ([2]; inhibitor 10 mM): 19.9 ± 8.0%; % inhibition of CDD hydrolysis ([3]; inhibitor 5 mM): 23.2 ± 11.4%; % inhibition of CDD hydrolysis ([3]; inhibitor 10 mM): 26.5 ± 3.6%
CNC(=O)Oc1ccc2c(c1)[C@]1(C)CCN(C)[C@@H]1N2C [Eserine, eserine hemisulfate salt] |  |  |  |  |  |  | did not prevent | no inhibition | no inhibition | % inhibition of CDD hydrolysis ([1]; inhibitor 10 μM): <10%; % inhibition of CDD hydrolysis ([1]; inhibitor 100 μM): <10%; % inhibition of CDD hydrolysis ([2]; inhibitor 10 μM): <10%; % inhibition of CDD hydrolysis ([2]; inhibitor 100 μM): <10%; % inhibition of CDD hydrolysis ([3]; inhibitor 10 μM): <10%; % inhibition of CDD hydrolysis ([3]; inhibitor 100 μM): <10%
CC(C)NP(=O)(NC(C)C)OP(=O)(NC(C)C)NC(C)C [Iso-OMPA, tetraisopropyl pyrophosphoramide] | 99.5 ± 11.2 | 108.3 ± 5.2 | 16.9 ± 7.1 | 17.6 ± 6.7 | <10 | <10 |  | fewer than those of the aforementioned esterase inhibitors | no inhibition | % inhibition of CDD hydrolysis ([1]; inhibitor 0.1 mM, listed as iso-OMPA): > 80%
[F-].[Na+] [NaF, Sodium fluoride] |  |  |  |  |  |  |  | no inhibition | no inhibition | % inhibition of CDD hydrolysis ([1]; inhibitor 5 mM): <10%; inhibition of CDD hydrolysis (in words) ([1]; inhibitor 10 mM): partially prevented; % inhibition of CDD hydrolysis ([1]; inhibitor 10 mM): 24.4 ± 7.1%; % inhibition of CDD hydrolysis ([2]; inhibitor 5 mM): <10%; % inhibition of CDD hydrolysis ([2]; inhibitor 10 mM): <10%; % inhibition of CDD hydrolysis ([3]; inhibitor 5 mM): <10%; % inhibition of CDD hydrolysis ([3]; inhibitor 10 mM): <10%
O=S(=O)(F)Cc1ccccc1 [PMSF, Phenylmethanesulfonyl fluoride] | <10 | 96.0 ± 9.2 | <10 | 29.6 ± 5.3 | <10 | <10 |  |  | no inhibition | effect on ex vivo hydrolysis of CDD [4]: inhibited
Cl.NCCc1ccc(S(=O)(=O)F)cc1 [Pefabloc® SC, 4-(2-aminoethyl-)benzenesulphonylfloride hydrochloride] | 19.4 ± 2.1 | 99.8 ± 7.9 | <10 | 25.8 ± 3.1 | <10 | <10 |  |  | no inhibition | 
Cc1ccc(S(=O)(=O)N[C@@H](CCCCN)C(=O)CCl)cc1.Cl [TLCK, N-α-tosyl-L-lysine chloromethylketone hydrochloride] | <10 | <10 | <10 | 17.0 ± 10.3 | <10 | <10 | did not prevent |  | no inhibition | 
